Results published in US20200216416A1, “QUINOLINE COMPOUNDS AS INHIBITORS OF TAM AND MET KINASES” (Array BioPharma Inc., priority 2019, published 2020).

What was measured:
human MET kinase Y1230S = molecular target: T1, human MET kinase Y1230S (Homo sapiens, UniProt P08581, Y1230S); assay: c-Met Enzyme Assay, Y1230S mutant; type: binding; conditions: averaged IC50; Y1230S 8 nM; 60-minute incubation at 22° C.; read-out: Y1230 S IC50
T1 construct: GST-tagged recombinant human MET kinase domain; purchased Signal Chem
T1 sequence (P08581 1078-1345 Y1230S): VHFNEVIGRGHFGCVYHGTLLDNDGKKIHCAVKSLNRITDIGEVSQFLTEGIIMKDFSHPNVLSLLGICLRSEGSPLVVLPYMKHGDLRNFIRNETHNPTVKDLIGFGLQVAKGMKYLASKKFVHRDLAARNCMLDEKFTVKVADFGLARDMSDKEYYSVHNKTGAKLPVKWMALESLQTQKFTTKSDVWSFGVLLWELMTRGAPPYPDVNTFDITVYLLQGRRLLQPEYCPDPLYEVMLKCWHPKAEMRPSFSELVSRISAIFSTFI
Procedure: (§1) The affinity of compound binding to wild type and mutant human MET kinases was measured using Invitrogen's LanthaScreen™ Eu Kinase Binding technology. Briefly, GST-tagged recombinant human MET kinase domain from Signal Chem (see Table 8 below for concentration in assay) was incubated with 50 nM Alexa-Fluor® Tracer 236 (Invitrogen Cat No. PR9078A) and 2 nM Europium-anti-GST (Invitrogen Cat. No. A15116) along with test compound in a buffer consisting of 25 mM HEPES, pH 7.4, 10 mM MgCl2, 0.01% Triton X-100, 1mM DTT, and 2% DMSO. Compounds were typically prepared in a three-fold serial dilution in DMSO and added to the assay to give the appropriate final concentration. After a 60-minute incubation at 22° C., the reaction was measured using a PerkinElmer EnVision multimode plate reader via TR-FRET dual wavelength detection, and the percent of control (POC) calculated using a ratiometric emission factor. […] The POC values were fit to a 4 parameter logistic curve and the IC50 value is point where the curve crosses 50 POC.

[1] = molecular target: T2, MET (wt) GST-tagged recombinant human MET kinase domain (Homo sapiens, UniProt P08581); assay: c-Met Enzyme Assay, wild type (LanthaScreen Eu Kinase Binding); conditions: averaged IC50; MET (wt) 10 nM; 60-minute incubation at 22° C.; read-out: SigChem WT IC50
T2 construct: GST-tagged recombinant human MET kinase domain; purchased Signal Chem
T2 sequence (P08581 1078-1345 limits assumed): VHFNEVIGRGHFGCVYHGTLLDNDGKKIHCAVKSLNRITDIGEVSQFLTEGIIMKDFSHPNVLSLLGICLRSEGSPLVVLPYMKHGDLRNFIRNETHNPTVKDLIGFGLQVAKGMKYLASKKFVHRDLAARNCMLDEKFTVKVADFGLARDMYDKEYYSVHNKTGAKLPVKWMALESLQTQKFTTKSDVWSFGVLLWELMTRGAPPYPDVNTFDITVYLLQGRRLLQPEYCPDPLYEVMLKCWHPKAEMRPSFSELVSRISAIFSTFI
Procedure: as §1

[2] = molecular target: T3, His-tagged recombinant human AXL cytoplasmic domain (Homo sapiens, UniProt P30530); assay: AXL Enzyme Assay (LanthaScreen Eu Kinase Binding); conditions: averaged IC50; 60-minute incubation at 22° C.; TR-FRET
T3 construct: His-tagged recombinant human AXL cytoplasmic domain
T3 sequence (P30530 473-894 limits assumed): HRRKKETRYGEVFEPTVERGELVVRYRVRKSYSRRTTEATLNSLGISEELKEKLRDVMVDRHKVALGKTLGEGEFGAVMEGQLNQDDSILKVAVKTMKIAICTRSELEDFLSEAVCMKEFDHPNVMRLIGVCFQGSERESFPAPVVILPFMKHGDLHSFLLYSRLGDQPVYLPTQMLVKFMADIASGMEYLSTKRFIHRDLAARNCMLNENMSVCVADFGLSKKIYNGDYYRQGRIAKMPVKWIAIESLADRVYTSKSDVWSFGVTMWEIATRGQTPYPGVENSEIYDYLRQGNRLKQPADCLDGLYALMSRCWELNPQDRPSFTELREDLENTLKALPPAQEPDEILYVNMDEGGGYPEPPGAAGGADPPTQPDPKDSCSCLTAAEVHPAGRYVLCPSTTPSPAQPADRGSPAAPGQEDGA
Procedure: (§2) Compounds disclosed herein were screened for their ability to inhibit AXL kinase using Invitrogen's LanthaScreen™Eu Kinase Binding technology. His-tagged recombinant human AXL cytoplasmic domain was incubated with 20 nM Alexa-Fluor® Tracer 236 (PR9078A), 2 nM biotinylated anti-His (Cat. No. M4408), and 2 nM europium-labeled Streptavidin (Cat. No. PV5899) along with test compound in a buffer consisting of 25 mM HEPES, pH 7.4, 10 mM MgCl2, 0.01% Triton X-100, and 2% DMSO. Compounds were typically prepared in a threefold serial dilution in DMSO and added to the assay to give the appropriate final concentration. After a 60-minute incubation at 22° C., the reaction was measured using a PerkinElmer EnVision multimode plate reader via TR-FRET dual wavelength detection, and the percent of control (POC) was calculated using a ratiometric emission factor. […] The POC values are fit to a 4 parameter logistic curve and the IC50 value is point where the curve crosses 50 POC.

[3] = molecular target: T4, His-tagged recombinant human MER cytoplasmic domain (Homo sapiens, UniProt Q12866); assay: MER Enzyme Assay (LanthaScreen Eu Kinase Binding); conditions: averaged IC50; MER 5 nM; 60-minute incubation at 22° C.; TR-FRET
T4 construct: His-tagged recombinant human MER cytoplasmic domain
T4 sequence (Q12866 527-999 limits assumed): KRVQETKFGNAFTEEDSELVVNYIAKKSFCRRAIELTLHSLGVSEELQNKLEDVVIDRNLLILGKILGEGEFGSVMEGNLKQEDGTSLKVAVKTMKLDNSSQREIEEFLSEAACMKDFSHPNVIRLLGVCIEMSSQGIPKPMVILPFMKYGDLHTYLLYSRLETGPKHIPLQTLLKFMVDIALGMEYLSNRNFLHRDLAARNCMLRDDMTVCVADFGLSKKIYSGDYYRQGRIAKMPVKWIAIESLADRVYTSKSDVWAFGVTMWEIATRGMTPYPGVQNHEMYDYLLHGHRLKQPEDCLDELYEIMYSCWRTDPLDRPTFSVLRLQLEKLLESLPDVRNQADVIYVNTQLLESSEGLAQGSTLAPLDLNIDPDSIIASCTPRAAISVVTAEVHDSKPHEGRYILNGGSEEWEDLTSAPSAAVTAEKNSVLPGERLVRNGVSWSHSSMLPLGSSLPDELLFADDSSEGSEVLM
Procedure: as §2, with “human MER” for “human AXL”, “domain (5 nM)” for “domain”, “mM MgCl 2,” for “mM MgCl2,”

[4] = molecular target: T5, human MET kinase del Ex14 (Homo sapiens, UniProt P08581, DEL963-1009); assay: c-Met Enzyme Assay, del Ex14 mutant; type: binding; conditions: averaged IC50; del Ex14 5 nM; 60-minute incubation at 22° C.; read-out: Del14 IC50
T5 construct: GST-tagged recombinant human MET kinase domain; purchased Signal Chem
T5 sequence (P08581 with tags, fused parts or gaps DEL963-1009 limits assumed): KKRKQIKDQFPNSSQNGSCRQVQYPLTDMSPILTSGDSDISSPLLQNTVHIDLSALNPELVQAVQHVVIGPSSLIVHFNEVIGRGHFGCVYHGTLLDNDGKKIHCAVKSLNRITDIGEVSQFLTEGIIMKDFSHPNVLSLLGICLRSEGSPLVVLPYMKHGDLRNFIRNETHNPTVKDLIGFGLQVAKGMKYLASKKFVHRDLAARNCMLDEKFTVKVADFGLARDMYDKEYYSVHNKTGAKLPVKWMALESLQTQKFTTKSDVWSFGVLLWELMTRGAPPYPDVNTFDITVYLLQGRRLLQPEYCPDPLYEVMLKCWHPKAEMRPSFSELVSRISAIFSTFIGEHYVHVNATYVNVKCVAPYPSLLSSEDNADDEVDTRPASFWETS
Procedure: as §1

human MET kinase D1228H = molecular target: T6, human MET kinase D1228H (Homo sapiens, UniProt P08581, D1228H); assay: c-Met Enzyme Assay, D1228H mutant; type: binding; conditions: averaged IC50; D1228H 2 nM; 60-minute incubation at 22° C.; read-out: D1228 H IC50
T6 construct: GST-tagged recombinant human MET kinase domain; purchased Signal Chem
T6 sequence (P08581 1078-1345 D1228H): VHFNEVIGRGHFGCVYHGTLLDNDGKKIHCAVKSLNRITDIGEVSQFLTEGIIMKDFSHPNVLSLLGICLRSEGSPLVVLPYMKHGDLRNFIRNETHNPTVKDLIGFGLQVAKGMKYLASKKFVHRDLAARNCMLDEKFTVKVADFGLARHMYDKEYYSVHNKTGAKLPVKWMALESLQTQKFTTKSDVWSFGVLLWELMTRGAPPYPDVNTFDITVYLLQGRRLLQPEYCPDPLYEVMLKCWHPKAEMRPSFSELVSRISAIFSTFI
Procedure: as §1

human MET kinase Y1230C = molecular target: T7, human MET kinase Y1230C (Homo sapiens, UniProt P08581, Y1230C); assay: c-Met Enzyme Assay, Y1230C mutant; type: binding; conditions: averaged IC50; Y1230C 2 nM; 60-minute incubation at 22° C.; read-out: Y1230 C IC50
T7 construct: GST-tagged recombinant human MET kinase domain; purchased Signal Chem
T7 sequence (P08581 1078-1345 Y1230C): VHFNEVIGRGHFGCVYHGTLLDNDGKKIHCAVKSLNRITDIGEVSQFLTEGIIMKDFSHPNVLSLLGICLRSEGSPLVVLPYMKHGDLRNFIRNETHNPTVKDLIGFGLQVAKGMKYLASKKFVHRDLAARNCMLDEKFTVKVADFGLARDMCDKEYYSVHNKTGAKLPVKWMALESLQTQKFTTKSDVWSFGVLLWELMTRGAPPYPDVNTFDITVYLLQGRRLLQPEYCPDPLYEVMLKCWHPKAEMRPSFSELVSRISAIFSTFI
Procedure: as §1

| SMILES | IC50 (human MET kinase Y1230S) | IC50 [1] | IC50 [2] | IC50 [3] | IC50 [4] | IC50 (human MET kinase D1228H) | IC50 (human MET kinase Y1230C) |
| --- | --- | --- | --- | --- | --- | --- | --- |
| COc1cc2c(Oc3ccc(NC(=O)c4cn(C(C)C)cc(-c5ccc(F)cc5)c4=O)nc3)ccnc2cc1F [Example 49, N-(5-((7-fluoro-6-methoxyquinolin-4yl)oxy)pyridin-2-yl)-5-(4-fluorophenyl)-1-isopropyl-4-oxo-1,4-dihydropyridine-3-carboxamide] | 67.1 nM | 27 nM | 1 nM | 5 nM | 22 nM | 64.3 nM | 39 nM |
| COc1cc2nccc(Oc3ccc(NC(=O)c4cn(C(C)C)cc(-c5ccc(F)cc5)c4=O)nc3)c2cc1OC [Example 1] | 1.3 nM | 2.4 nM | 1 nM | 3 nM | 2.6 nM | 1.8 nM | 1.5 nM |
| COc1cc2nccc(Oc3ccc(NC(=O)c4cn(CC(=O)N(C)C)cc(-c5ccc(F)c(F)c5)c4=O)nc3)c2cc1OC [Example 24, 5-(3,4-difluorophenyl)-N-(5-((6,7-dimethoxyquinolin-4-yl)oxy)pyridin-2-yl)-1-(2-(dimethylamino)-2-oxoethyl)-4-oxo-1,4-dihydropyridine-3-carboxamide] | 16.5 nM | 7.8 nM | 1 nM | 5 nM | 10.5 nM | 15.2 nM | 14.3 nM |
| CC(C)n1cc(C(=O)Nc2ccc(Oc3ccnc4cc(OC(F)(F)F)ccc34)cn2)c(=O)c(-c2ccc(F)cc2)c1 [Example 50, 5-(4-fluorophenyl)-1-isopropyl-4-oxo-N-(5-((7-(trifluoromethoxy)quinolin-4-yl)oxy)pyridin-2-yl)-1,4-dihydropyridine-3-carboxamide] | 166 nM | 59.2 nM | 16 nM | 79 nM | 90.4 nM | 223 nM | 199 nM |
| CCc1c(-c2ccc(F)cc2)c(=O)c(C(=O)Nc2ccc(Oc3ccnc4cc(OC)c(OC)cc34)cn2)cn1C(C)C [Example 29, N-(5-((6,7-dimethoxyquinolin-4yl)oxy)pyridin-2-yl)-6-ethyl-5-(4-fluorophenyl)-1-isopropyl-4-oxo-1,4-dihydropyridine-3-carboxamide] | 1.5 nM | 4.3 nM | 1 nM | 3 nM | 2.5 nM | 2.4 nM | 2.6 nM |
| COc1cc2nccc(Oc3ccc(NC(=O)c4cn(CCN(C)C)cc(-c5ccc(F)cc5)c4=O)nc3)c2cc1OC [Example 46] | 1.7 nM | 3 nM | 1 nM | 2 nM | 2.8 nM | 3.2 nM | 1.7 nM |
| COc1cc2nccc(Oc3ccc(NC(=O)c4cn(CC(C)C)cc(-c5ccc(F)cc5)c4=O)nc3)c2cc1OC [Example 11, N-(5-((6,7-dimethoxyquinolin-4-yl)oxy)pyridin-2-yl)-5-(4-fluorophenyl)-1-isobutyl-4-oxo-1,4-dihydropyridine-3-carboxamide] | 4.9 nM | 7.8 nM | 5 nM | 16 nM | 7.7 nM | 6.5 nM | 6.5 nM |
| COc1cc2nccc(Oc3ccc(NC(=O)c4cn(C(C)C)c(C)c(-c5ccc(F)c(F)c5)c4=O)nc3)c2cc1OC [Example 28, 5-(3,4-difluorophenyl)-N-(5-((6,7-dimethoxyquinolin-4yl)oxy)pyridin-2-yl)-1-isopropyl-6-methyl-4-oxo-1,4-dihydropyridine-3-carboxamide] | 1.8 nM | 2 nM | 1 nM | 3 nM | 1.9 nM | 1.4 nM | 1.7 nM |
| COc1cc2nccc(Oc3cnc(NC(=O)c4cn(C(C)C)cc(-c5ccc(F)cc5)c4=O)nc3)c2cc1OC [Example 54, N-(5-((6,7-dimethoxyquinolin-4-yl)oxy)pyrimidin-2-yl)-5-(4-fluorophenyl)-1-isopropyl-4-oxo-1,4-dihydropyridine-3-carboxamide] | 3.2 nM | 4.7 nM | 5 nM | 10 nM | 3.8 nM | 3.8 nM | 4.3 nM |
| COc1cc2nccc(Oc3ccc(NC(=O)c4cn(CC(=O)N5CCOCC5)cc(-c5ccc(F)cc5F)c4=O)nc3)c2cc1OC [Example 15, 5-(2,4-difluorophenyl)-N-(5-((6,7-dimethoxyquinolin-4-yl)oxy)pyridin-2-yl)-1-(2-morpholino-2-oxoethyl)-4-oxo-1,4-dihydropyridine-3-carboxamide] | 53.3 nM | 33.8 nM | 2 nM | 29 nM | 29.5 nM | 99.1 nM | 66.8 nM |
| COCCn1cc(C(=O)Nc2ccc(Oc3ccnc4cc(OC)c(OC)cc34)cn2)c(=O)c(-c2ccc(F)cc2)c1 [Example 7, N-(5((6,7-dimethoxyquinolin-4-yl)oxy)pyridin-2-yl)-5-(4-fluorophenyl)-1-(2-methoxyethyl)-4-oxo-1,4-dihydropyridine-3-carboxamide] | 2.1 nM | 3.1 nM | 2 nM | 3 nM | 2.6 nM | 2 nM | 2.9 nM |
| CCn1cc(C(=O)Nc2ccc(Oc3ccnc4cc(OC)c(OC)cc34)cn2)c(=O)c(-c2ccc(F)cc2)c1 [Example 3] | 4.7 nM | 3.2 nM | 1 nM | 3 nM | 3 nM | 4.7 nM | 4.2 nM |
